Source: EP0959065B1, “Pyrethroid compound and composition for controlling pest containing the same” (priority 1998, dated 1999)

Experiments:
[1] = tested on: female adult houseflies; assay: Insecticidal activity against housefly, topical application of acetone dilutions on the nota; format: in vivo; settings: Musca domestica, 0.5 µl acetone dilution per insect on the nota, mortality after 24 hours
Procedure: The present compound was diluted with acetone to concentrations of 100, 50, 25, 12.5 and 6.25 ppm. Each of reference compounds A and B was also diluted with acetone to concentrations of 400, 200, 100, 50 and 25 ppm. Each of the dilutions thus prepared was applied on the nota of female adult houseflies in a volume of 0.5 µl per insect. The insects were given water and diet. After 24 hours, the dead and alive were counted for mortality. From the mortality, LD50 (mg/kg) value was determined.

[2] = Toxicity to rat, administration of corn oil dilutions; settings: in vivo, male rats, dilution in corn oil, 10 ml/kg, mortality after 7 days
Procedure: Each of the present compound and reference compounds A and B was diluted with corn oil to predetermined concentrations. Each of the dilutions thus prepared was administered to male rats in an amount of 10 ml/kg. The rats were given water and diet. After 7 days, the dead and alive were counted for mortality. From the mortality, LD50 (mg/kg) value was determined.

[3] = tested on: houseflies (Musca domestica); assay: Mosquito coil fumigation test in glass chamber (knock-down and lethal activity); format: in vivo; design: key to Knocking-down activity: Excellent: All the insects were knocked down or dead (the total in the two replications); Good: 1 to 2 insects were not knocked down or dead (ditto); Mediocre: 3 to 4 insects were not knocked down or dead (ditto); Bad: 5 or more insects were not knocked down or dead (ditto); settings: two replications; for Knocking-down activity: 0.3 g coil burnt 30 seconds in 0.34 m^3 chamber, knocked-down counted at ten minutes, 10 adult houseflies; for Lethal activity: insects recovered at 25 minutes, dead and alive counted in 24 hours
Description: A base material for mosquito coil (obtained by stirring a 4:3:3 mixture of Tabu powder, Pyrethrum marc and wood powder, adding water thereto, thoroughly kneading the resulting mixture, and molding and drying the kneaded mixture) was uniformly impregnated with a solution of the present compound in acetone so that the material contains a predetermined amount of the compound. The resultant base material was air-dried to obtain a mosquito coil.
Ten adult houseflies (Musca domestica) (male/ female = 5/5) were released in a glass chamber (70cm cube, capacity: 0.34 m^3). 0.3 Gram of a mosquito coil containing the present compound prepared according to the procedure described above was set on a holder in the center of the bottom of the chamber, ignited at one end thereof, and taken out of the chamber after 30 seconds of combustion. The knocked-down houseflies were counted in ten minutes after the setting of the coil. In 25 minutes after the setting of the coil, the test insects were recovered into a cup for recovery and given water and diet. The dead and alive were counted in 24 hours. Two replications of the test were carried out. The same test procedure was repeated for 4-methyl-2,3,5,6-tetrafluorobenzyl (1R)-cis-3-(2,2-dichlorovinyl)-2,2-dimethylcyclopropanecarboxylate (hereinafter referred to as reference compound A) and for a mixture of 50% by weight of 4-methyl-2,3,5,6-tetrafluorobenzyl (1RS)-cis-3-(2,2-dichlorovinyl)-2,2-dimethylcyclopropanecarboxylate and 50% by weight of 4-methyl-2,3,5,6-tetrafluorobenzyl (1RS)-trans-3-(2,2-dichlorovinyl)-2,2-dimethylcyclopropanecarboxylate (this mixture is hereinafter referred to as reference compound B). […] In the table, the knocking-down activity and the lethal activity are indicated according to the following criterion: • Excellent: All the insects were knocked down or dead (the total in the two replications). • Good: 1 to 2 insects were not knocked down or dead (ditto). • Mediocre: 3 to 4 insects were not knocked down or dead (ditto). • Bad: 5 or more insects were not knocked down or dead (ditto).

[4] = Calculation of safety factor (rat LD50 / housefly LD50); settings: Toxicity to rat (LD50 value) / Insecticidal activity against housefly (LD50 value)
Procedure: The safety factor was calculated from the insecticidal activity against housefly and the toxicity to rat according to the following equation. […] Safety factor = Toxicity to rat (LD50 value)] / [Insecticidal activity against housefly (LD50 value)] [formula]

Compound	LD50 [1]	LD50 at 7 days [2]	Knocking-down activity ([3]; concentration 0.5 %W/W)	Lethal activity ([3]; concentration 0.5 %W/W)	Safety factor [4]	Knocking-down activity ([3]; concentration 1.0 %W/W)	Lethal activity ([3]; concentration 1.0 %W/W)
Cc1c(F)c(F)c(COC(=O)[C@@H]2[C@@H](C=C(Cl)Cl)C2(C)C)c(F)c1F [Present compound, 4-methyl-2,3,5,6-tetrafluorobenzyl (1R)-trans-3-(2,2-dichlorovinyl)-2,2-dimethylcyclopropanecarboxylate]	0.93 mg/kg	300 mg/kg	Excellent	Good (1 to 2 insects were not knocked down or dead (ditto))	320		
Cc1c(F)c(F)c(COC(=O)[C@@H]2[C@H](C=C(Cl)Cl)C2(C)C)c(F)c1F [Reference compound A, 4-methyl-2,3,5,6-tetrafluorobenzyl (1R)-cis-3-(2,2-dichlorovinyl)-2,2-dimethylcyclopropanecarboxylate]	2.8 mg/kg	< 100 mg/kg	Bad (5 or more insects were not knocked down or dead (ditto))	Bad (5 or more insects were not knocked down or dead (ditto))	<36		
mixture of 50% by weight of 4-methyl-2,3,5,6-tetrafluorobenzyl (1RS)-cis-3-(2,2-dichlorovinyl)-2,2-dimethylcyclopropanecarboxylate and 50% by weight of 4-methyl-2,3,5,6-tetrafluorobenzyl (1RS)-trans-3-(2,2-dichlorovinyl)-2,2-dimethylcyclopropanecarboxylate [Reference compound B]			Bad (5 or more insects were not knocked down or dead (ditto))	Bad (5 or more insects were not knocked down or dead (ditto))	<35	Mediocre (3 to 4 insects were not knocked down or dead (ditto))	Bad (5 or more insects were not knocked down or dead (ditto))
